# Experimental data: patent US7145037B2, “Adamantane derivatives with neuroprotective, antidepressant and anti-ischaemic activities, and process for preparing them” (Rotta Research Laboraturium S.p.A., priority 2003, dated 2006)
# Where a name gives a salt, the structure may show the parent alone. Marks after values point to notes of the source that are not given here.
# Experiments:
# NO-synthetase (NOS) = NO-synthetase (NOS) (Oryctolagus cuniculus, UniProt G1SGE1); test: Inhibition of NO (nitrite) formation in rabbit articular chondrocytes stimulated with IL-1β; type: cell-based; conditions: for IC50: nitrite formation, IL-1β 1 ng/ml, 48 hours, 95% confidence limits in parentheses, read-out: Rabbit articular chondrocytes % inhibition (IC50 × 10^−6M)
# Procedure: a) The inhibitory activity on the formation of NO, measured as NO2^− (nitrite), was studied in vitro on culture media of rabbit articular chondrocytes stimulated with the cytokine IL-1β (1 ng/ml) for 48 hours. For the preparation of the chondrocytes, the method described by Berenbaum et al. […] The cells were maintained under these conditions to the point of confluency (about 15 days), the medium being changed every 3 days. […] The stimulation lasted for 48 hours at 37° C. (incubation under air-7% CO2). Next, an assay of the nitrites was performed on the cell supernatant according to the method described by Green et al. [Anal. Biochem. 126, 131–138 (1982)].
# mouse [1] = test: Swimming test (Porsolt) in the mouse; type: in vivo
# Procedure: Process: The procedure is similar to that described by Porsolt et al. (Arch. Int. Pharmacodyn. 229, p. 327–336 (1977).
# Naïve (unconditioned) mice are subjected to forced swimming for 15 minutes in a glass cylinder containing 20 cm of water at a temperature of 25° C. The period of immobility from the third to the sixth minute (inclusive) and the time to reach total immobility from the sixth to the fifteenth minute were measured. Total immobility is defined as the latent time required in order for the animal to remain immobile for at least 30 seconds. The compounds were administered orally 60 minutes before the test.
# NMDA receptor [2] = test: Release of [3H]noradrenalin stimulated by NMDA in rat hippocampus slices; type: cell-based; conditions: aCSF lacking Mg2+, 100 μM NMDA, read-out: IC50 for antagonizing the effect of 100 μM NMDA on [3H]noradrenalin release
# Procedure: The preparation of the slices is analogous to that described previously. The slices were perfused in the presence of [^3H] noradrenalin with an aCSF lacking in Mg^2+ ions. After perfusion for 45 minutes to equilibrate the system, 7 fractions of 5 minutes each were collected. The test compounds were added to the perfusion liquid 10 minutes before starting the collection of the fractions, while 100 μM NMDA was added only to fraction 4, from the fifteenth minute after the start of collection.
# At the end of the experiment, the radioactivity present was counted as described previously. For each sample, the percentage ratio between the fractional release in fraction 4 in the presence of NMDA and the fractional release in the first collected fraction was determined. The activity of the test drugs was expressed as a mean percentage value of the number of experiments performed relative to the percentage increase in the release of [^3H] noradrenalin into the NMDA-stimulated control chambers in the absence of antagonists.
# NMDA receptor [3] = target: T1, NMDA receptor; test: Binding of [3H]MK-801 to rat cortical synaptosomial membranes; conditions: H3-MK-801, 45 min at 23° C., read-out: IC50, concentration displacing 50% of the ligand (MK-801) from the receptor
# T1 construct: IC50, concentration displacing 50% of the ligand (MK-801) from the receptor; other: rat cortical membranes, H3-MK-801
# rat striatum slices [4] = test: Basal release of [3H]dopamine from rat striatum slices in perfusion; type: cell-based; conditions: inactive = at the concentration in parentheses
# Procedure: (§1) The animals were sacrificed and the brains rapidly removed from the brain case and immediately transferred at 4° C. into artificial cerebrospinal fluid (aCSF) aerated with a gas mixture composed of 95% oxygen and 5% carbon dioxide. The brains were then sectioned at a temperature of 4° C. and the encephalic areas of interest (hippocampus and corpora striata) removed and immersed in the solution mentioned above.
# (§2) Cerebral slices 400 μm thick were then prepared using a McIllwain “chopper”. The hippocampus slices were incubated with 0.08 μM of [^3H] noradrenalin and the striatum slices with 0.01 μM of [^3H] dopamine and/or with 0.09 μM of [^3H] choline at a temperature of 37° C. for 20 minutes. The slices labelled with [^3H] noradrenalin were incubated in the presence of 0.1 μM 6-nitroquipazine and 0.1 μM GBR 12909, which are selective inhibitors of the uptake of serotonin and dopamine, respectively, in order to prevent possible false labelling of serotoninergic and dopaminergic synaptic endings.
# (§3) For the same reasons, the slices labelled with [^3H] dopamine were incubated in the presence of 0.1 μM 6-nitroquipazine and 0.1 μM nisoxetine, which are selective inhibitors of serotonin and noradrenalin uptake. […]
# (§4) At the end of the experiment, the collected samples and the perfused slices (dissolved in toluene) were subjected to counting of the radioactivity present in each fraction and/or slice using a scintillator for liquid samples. The fractional release of tritiated neurotransmitters was calculated as the amount of radioactivity present in each fraction divided by the total radioactivity present in the slice at the moment at which it was collected. The ratios between the fractional release at a given moment of the perfusion and the fractional release in the first collected fraction were thus calculated for each slice. The effects of the compounds were expressed as a percentage of increase of the release of the neurotransmitters studied relative to the control slices perfused in the absence of drugs (Table 2).
# [5] = test system: rat parieto-occipital cortex slices; test: Release of [3H]D-aspartate evoked by 30 mM KCl under hypoglycaemic conditions in rat parieto-occipital slices; type: cell-based; conditions: read-out: IC50 for antagonizing the hypoglycaemia-induced increase in the release of [3H]D-aspartate
# Procedure: This in vitro experimental model was designed to mimic a condition of […] and is a modification of the model reported by Zablocka B. and Domanska-Janik K., [NeuroReport 6, 85–88 (1994)].
# Rat parieto-occipital cortex is removed and sectioned into 400 μm coronal slices. The cortical slices are incubated at 37° C. for 30 minutes with [^3H]D-aspartate and then, after washing for 45 minutes, stimulated for 5 minutes with a hypertonic potassium solution (30 mM). Once the basal conditions have been restored, the slices are perfused with a glucose-free medium for 20 minutes. The test compounds are at this point added to a standard medium containing glucose and perfused until the end of the experiment. 10 minutes from the end of the hypoglycaemic period, a further hypertonic potassium stimulation depolarizes the neuronal membrane, causing an approximately 75% increase in the release of [^3H]D-aspartate evoked under control conditions.
# rat striatum slices [6] = test: Basal release of [3H]acetylcholine from rat striatum slices in perfusion; type: cell-based; conditions: inactive = at the concentration in parentheses
# Procedure: as §1, §2, §3, §4
# rat hippocampus slices = test: Basal release of [3H]noradrenalin from rat hippocampus slices in perfusion; type: cell-based
# Procedure: as §1, §2, §3, §4
# mouse [7] = test: "Tail pinching" test in the mouse; type: in vivo; conditions: for Immobility time: 5 minutes; for % effect vs control: immobility time; for ED50: oral, calculated ED50, read-out: ED50 (reduction of immobility time)
# Procedure: Process: The procedure is similar to that described by Steru et al. [Psychopharmacol. 85, p. 367-(1985)]. The animals are suspended by the tail 75 cm above the bench surface. The duration of immobility is measured over a period of 5 minutes: the animals are considered as being immobile only when they hang passively and completely motionless. The compounds were administered orally 30 minutes before the test.
# [8] = 0.1 mg/kg orally 60 minutes before the test
# [9] = 1 mg/kg orally 60 minutes before the test
# [10] = 10 mg/kg orally 60 minutes before the test
# [11] = 1 mg/kg orally 30 minutes before the test
# [12] = 10 mg/kg orally 30 minutes before the test
# [13] = 3 mg/kg orally 60 minutes before the test
# [14] = 30 mg/kg orally 60 minutes before the test
# Sequence of NO-synthetase (NOS) (G1SGE1 entry or part of it): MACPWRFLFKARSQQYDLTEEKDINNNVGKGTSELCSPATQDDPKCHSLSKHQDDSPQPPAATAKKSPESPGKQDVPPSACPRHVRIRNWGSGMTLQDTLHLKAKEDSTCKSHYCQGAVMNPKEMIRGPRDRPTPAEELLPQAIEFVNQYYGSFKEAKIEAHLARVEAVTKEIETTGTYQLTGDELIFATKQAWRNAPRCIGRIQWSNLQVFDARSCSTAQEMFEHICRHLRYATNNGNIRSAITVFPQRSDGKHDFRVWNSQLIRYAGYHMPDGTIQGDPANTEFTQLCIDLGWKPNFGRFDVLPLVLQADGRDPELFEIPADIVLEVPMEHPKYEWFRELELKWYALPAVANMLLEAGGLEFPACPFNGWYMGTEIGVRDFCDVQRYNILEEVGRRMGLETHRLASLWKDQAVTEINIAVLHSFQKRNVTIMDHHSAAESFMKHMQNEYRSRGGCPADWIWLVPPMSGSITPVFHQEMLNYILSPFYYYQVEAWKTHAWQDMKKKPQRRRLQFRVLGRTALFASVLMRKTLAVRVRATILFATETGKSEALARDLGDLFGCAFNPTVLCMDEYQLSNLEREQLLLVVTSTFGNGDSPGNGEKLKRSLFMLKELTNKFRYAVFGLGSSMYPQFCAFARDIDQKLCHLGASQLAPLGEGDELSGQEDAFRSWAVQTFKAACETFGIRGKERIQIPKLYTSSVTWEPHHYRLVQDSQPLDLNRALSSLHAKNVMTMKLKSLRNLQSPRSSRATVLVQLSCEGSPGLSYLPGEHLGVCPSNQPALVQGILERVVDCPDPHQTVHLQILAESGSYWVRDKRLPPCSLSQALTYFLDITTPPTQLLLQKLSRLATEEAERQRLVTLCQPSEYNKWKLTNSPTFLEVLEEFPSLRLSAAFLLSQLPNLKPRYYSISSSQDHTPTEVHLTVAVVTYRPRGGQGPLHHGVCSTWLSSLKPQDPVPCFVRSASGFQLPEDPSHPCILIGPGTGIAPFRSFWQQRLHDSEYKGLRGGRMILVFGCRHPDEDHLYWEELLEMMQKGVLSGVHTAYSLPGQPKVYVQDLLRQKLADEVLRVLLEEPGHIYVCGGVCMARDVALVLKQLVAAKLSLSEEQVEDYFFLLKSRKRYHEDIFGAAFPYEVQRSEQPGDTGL
smiles,measurement,setting,value
COC(=O)[C@@H](N)CCCNC(=N)N[N+](=O)[O-] [L-NAME],IC50,NO-synthetase (NOS),340 µM
"CC12CC3CC(C)(C1)CC(CCNC(=N)N)(C3)C2 [Compound 4, N-[2-(3,5-dimethyl-1-adamantyl)ethyl]guanidine]",Immobility in sec. (3–6 mins),mouse [1]; [8],39.3* sec.
same,Latent time vs immobility in sec. (6–15 mins),mouse [1]; [8],353.3 s
same,Immobility in sec. (3–6 mins),mouse [1]; [9],39.8* sec.
same,Latent time vs immobility in sec. (6–15 mins),mouse [1]; [9],450.8* sec.
same,Immobility in sec. (3–6 mins),mouse [1]; [10],42.4* sec.
same,Latent time vs immobility in sec. (6–15 mins),mouse [1]; [10],495.8* sec.
same,IC50,NMDA receptor [2],0.5 µM
same,IC50,NMDA receptor [3],~40 µM
same,Basal release of [3H]DA on striatum slices: concentration increasing basal release by 100%,rat striatum slices [4],8 µM
same,IC50,[5],0.8 µM
same,Basal release of [3H]Ach on striatum slices: concentration increasing basal release by 100%,rat striatum slices [6],20 µM
same,Basal release of [3H]NE on hippocampus slices: concentration increasing basal release by 100%,rat hippocampus slices,15 µM
"CC12CC3CC(C)(C1)CC(CCNC(=N)N[N+](=O)[O-])(C3)C2 [Compound 6, N-[2-(3,5-dimethyl-1-adamantyl)ethyl]-nitroguanidine]",IC50,NO-synthetase (NOS),80.4 µM
CC(=N)NCCC12CC3CC(CC(C3)C1)C2 (as salt: HCl) [Compound 1],melting point,,243 °C
N=C(NCCC12CC3CC(CC(C3)C1)C2)N[N+](=O)[O-] [Compound 5],melting point,,260 °C
"CC12CC3CC(C)(C1)CC(N)(C3)C2 [Memantine, reference compound]",IC50,NMDA receptor [2],1.6 µM
same,IC50,NMDA receptor [3],80 µM
same,Basal release of [3H]DA on striatum slices: concentration increasing basal release by 100%,rat striatum slices [4],inactive (30 μM)
same,Immobility time,mouse [7]; 0.1 mg/kg orally 30 minutes before the test,49.9 s
same,% effect vs control,mouse [7]; 0.1 mg/kg orally,36.8%
same,Immobility time,mouse [7]; [11],48.9 s
same,% effect vs control,mouse [7]; 1 mg/kg orally,38.0%
same,Immobility time,mouse [7]; [12],40.1 s
same,% effect vs control,mouse [7]; 10 mg/kg orally,49.2%
same,ED50,mouse [7],24.9 mg/kg
same,Inhibition of the production of nitrite,NO-synthetase (NOS); up to the maximum concentration tested (3×10^−4M),entirely inactive
same,IC50,[5],7.5 µM
same,Basal release of [3H]Ach on striatum slices: concentration increasing basal release by 100%,rat striatum slices [6],inactive (100 μM)
same,Basal release of [3H]NE on hippocampus slices: concentration increasing basal release by 100%,rat hippocampus slices,130 µM
"CN(C)CCC=C1c2ccccc2CCc2ccccc21 [Amitryptiline, reference compound]",Immobility in sec. (3–6 mins),mouse [1]; [13],54.9 s
same,Latent time vs immobility in sec. (6–15 mins),mouse [1]; [13],477.5 s
same,Immobility in sec. (3–6 mins),mouse [1]; [10],56.0 s
same,Latent time vs immobility in sec. (6–15 mins),mouse [1]; [10],461.0 s
same,Immobility in sec. (3–6 mins),mouse [1]; [14],42.0 s
same,Latent time vs immobility in sec. (6–15 mins),mouse [1]; [14],607.8** sec.
N=C(N)NCCC12CC3CC(CC(C3)C1)C2 (as salt: HCl) [Compound 3],melting point,,246 °C
CC12CC3CC(C)(C1)CC(CCNC(=N)C1CC1)(C3)C2 [Compound 7],melting point,,96 °C
"CC(=N)NCCC12CC3CC(C)(CC(C)(C3)C1)C2 [Compound 2, N-[2-(3,5-dimethyl-1-adamantyl)ethyl]-acetamidine]",IC50,NMDA receptor [2],0.8 µM
same,IC50,NMDA receptor [3],~40 µM
same,Basal release of [3H]DA on striatum slices: concentration increasing basal release by 100%,rat striatum slices [4],2 µM
same,Immobility time,mouse [7]; 0.3 mg/kg orally 30 minutes before the test,56.6 s
same,% effect vs control,mouse [7]; 0.3 mg/kg orally,25.7%
same,Immobility time,mouse [7]; [11],48.0 s
same,% effect vs control,mouse [7]; 1 mg/kg orally,37.0%
same,Immobility time,mouse [7]; 3 mg/kg orally 30 minutes before the test,42.6 s
same,% effect vs control,mouse [7]; 3 mg/kg orally,44.1%
same,Immobility time,mouse [7]; [12],35.1 s
same,% effect vs control,mouse [7]; 10 mg/kg orally,53.9%
same,ED50,mouse [7],6 mg/kg
same,IC50,[5],2.5 µM
same,Basal release of [3H]Ach on striatum slices: concentration increasing basal release by 100%,rat striatum slices [6],inactive
same,Basal release of [3H]NE on hippocampus slices: concentration increasing basal release by 100%,rat hippocampus slices,6 µM
